According to ChEMBL document CHEMBL1909046, “DrugMatrix in vitro pharmacology data”:

Tests used:
[1] = DRUGMATRIX: Nicotinic Acetylcholine radioligand binding (ligand: [125I] Epibatidine); type: cell membranes, Membrane; conditions: imr-32; Not Active = under 50% inhibition at 10 µM
[2] = target: T1, Neuropeptide Y receptor type 1 (Homo sapiens, UniProt P25929); type: cell membranes, Membrane; conditions: sk-n-mc; also: in other assays of this panel Not Active means under 50% inhibition at 10 µM
T1 sequence (P25929 whole entry): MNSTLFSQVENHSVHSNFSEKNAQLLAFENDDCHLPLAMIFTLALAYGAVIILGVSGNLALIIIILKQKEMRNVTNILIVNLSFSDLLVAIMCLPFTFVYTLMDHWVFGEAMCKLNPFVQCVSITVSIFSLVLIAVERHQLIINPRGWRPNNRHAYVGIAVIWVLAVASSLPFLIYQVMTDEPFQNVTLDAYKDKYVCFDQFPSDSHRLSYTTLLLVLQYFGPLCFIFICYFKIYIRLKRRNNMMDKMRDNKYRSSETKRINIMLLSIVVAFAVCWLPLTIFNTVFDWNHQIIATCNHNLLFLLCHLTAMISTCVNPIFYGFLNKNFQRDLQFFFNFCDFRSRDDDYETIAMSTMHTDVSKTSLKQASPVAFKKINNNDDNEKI

Substance-K receptor = target: T2, Substance-K receptor (Homo sapiens, UniProt P21452); type: cell membranes, CHO, Membrane; also: in other assays of this panel Not Active means under 50% inhibition at 10 µM
T2 sequence (P21452 whole entry): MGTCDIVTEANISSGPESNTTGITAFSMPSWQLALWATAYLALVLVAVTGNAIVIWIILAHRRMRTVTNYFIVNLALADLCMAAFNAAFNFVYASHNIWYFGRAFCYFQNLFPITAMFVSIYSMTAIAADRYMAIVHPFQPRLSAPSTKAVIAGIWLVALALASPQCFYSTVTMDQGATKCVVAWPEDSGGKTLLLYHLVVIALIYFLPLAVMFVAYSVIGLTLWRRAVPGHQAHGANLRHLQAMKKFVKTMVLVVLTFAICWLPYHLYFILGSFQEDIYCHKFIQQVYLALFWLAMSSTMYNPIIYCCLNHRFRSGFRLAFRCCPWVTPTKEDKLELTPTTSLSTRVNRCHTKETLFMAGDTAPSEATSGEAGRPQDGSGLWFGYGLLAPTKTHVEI

[3] = DRUGMATRIX: Glutamate, Kainate radioligand binding (ligand: [3H] Kainic acid); type: cell membranes, Rattus norvegicus, Wistar, Brain, Membrane; conditions: Not Active = under 50% inhibition at 10 µM
Acetylcholinesterase = Acetylcholinesterase (Homo sapiens, UniProt P22303); assay: DRUGMATRIX: Acetylcholinesterase enzyme inhibition (substrate: acetylthiocholine); type: cell-based, HEK293; conditions: hek293; Not Active = under 50% inhibition at 10 µM
Acetylcholinesterase, sequence (P22303 whole entry): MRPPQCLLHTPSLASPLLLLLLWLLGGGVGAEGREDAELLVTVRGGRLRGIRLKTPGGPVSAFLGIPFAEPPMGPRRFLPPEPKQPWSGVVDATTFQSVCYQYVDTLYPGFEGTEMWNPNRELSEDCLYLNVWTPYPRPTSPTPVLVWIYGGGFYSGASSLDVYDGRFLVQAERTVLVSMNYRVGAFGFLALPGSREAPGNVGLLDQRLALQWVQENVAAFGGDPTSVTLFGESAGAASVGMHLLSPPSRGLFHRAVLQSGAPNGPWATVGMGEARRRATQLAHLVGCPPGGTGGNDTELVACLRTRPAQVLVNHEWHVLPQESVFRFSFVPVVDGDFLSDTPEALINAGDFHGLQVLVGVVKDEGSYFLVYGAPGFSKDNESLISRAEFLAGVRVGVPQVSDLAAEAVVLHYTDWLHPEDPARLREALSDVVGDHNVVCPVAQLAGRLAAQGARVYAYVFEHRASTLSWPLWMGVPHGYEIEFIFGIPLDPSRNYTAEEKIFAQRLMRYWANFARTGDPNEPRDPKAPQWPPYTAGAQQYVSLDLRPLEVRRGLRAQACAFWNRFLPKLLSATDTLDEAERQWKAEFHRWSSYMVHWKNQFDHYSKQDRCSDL

[4] = target: T3, C-C chemokine receptor type 4 (Homo sapiens, UniProt P51679); type: cell membranes, Chem-1, Membrane; conditions: chem-1; also: in other assays of this panel Not Active means under 50% inhibition at 10 µM
T3 sequence (P51679 whole entry): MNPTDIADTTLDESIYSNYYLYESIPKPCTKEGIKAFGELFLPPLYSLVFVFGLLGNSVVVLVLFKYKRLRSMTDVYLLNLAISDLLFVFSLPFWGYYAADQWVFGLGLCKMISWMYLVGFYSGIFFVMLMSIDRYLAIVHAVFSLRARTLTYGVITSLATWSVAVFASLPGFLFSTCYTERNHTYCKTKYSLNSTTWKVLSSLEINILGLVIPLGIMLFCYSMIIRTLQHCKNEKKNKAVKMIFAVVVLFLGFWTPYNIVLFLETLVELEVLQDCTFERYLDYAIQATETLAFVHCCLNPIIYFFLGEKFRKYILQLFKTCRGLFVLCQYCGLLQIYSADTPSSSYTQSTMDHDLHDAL

[5] = target: Prostaglandin G/H synthase 1 (Homo sapiens, UniProt P23219); assay: biochemical; type: tissue-based, Platelet;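 also: inhibition of COX-1 enzyme activity, with arachidonic acid supplied as substrate; in other assays of this panel Not Active means under 50% inhibition at 10 µM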
Prostaglandin G/H synthase 1, sequence (P23219 whole entry): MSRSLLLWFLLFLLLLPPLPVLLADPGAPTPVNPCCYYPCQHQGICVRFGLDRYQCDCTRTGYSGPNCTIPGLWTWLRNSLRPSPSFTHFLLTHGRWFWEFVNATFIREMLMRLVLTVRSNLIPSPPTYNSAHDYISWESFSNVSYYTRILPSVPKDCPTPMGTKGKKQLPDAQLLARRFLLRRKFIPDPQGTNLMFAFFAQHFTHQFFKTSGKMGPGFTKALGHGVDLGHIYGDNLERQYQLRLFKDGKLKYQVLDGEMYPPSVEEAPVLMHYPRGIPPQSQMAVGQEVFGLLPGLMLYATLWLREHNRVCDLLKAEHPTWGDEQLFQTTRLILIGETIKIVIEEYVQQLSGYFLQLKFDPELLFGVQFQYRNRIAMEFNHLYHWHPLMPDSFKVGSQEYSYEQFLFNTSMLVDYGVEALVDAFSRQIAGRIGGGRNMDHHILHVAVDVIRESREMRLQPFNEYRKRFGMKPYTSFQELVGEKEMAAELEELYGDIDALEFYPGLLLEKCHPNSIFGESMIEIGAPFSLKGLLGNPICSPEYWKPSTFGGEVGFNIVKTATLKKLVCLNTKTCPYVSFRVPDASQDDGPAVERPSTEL

| Compound | IC50 [1] | Ki [1] | IC50 [2] | Ki [2] | IC50 (Substance-K receptor; cho) | Ki (Substance-K receptor; cho) | IC50 [3] | Ki [3] | IC50 (Acetylcholinesterase) | Ki (Acetylcholinesterase) | IC50 [4] | Ki [4] | IC50 ([5]; platelet) | Ki ([5]; platelet) | IC50 ([5]; read-out: IC50) [nM] | IC50 (Substance-K receptor; read-out: IC50) [nM] | Ki (Substance-K receptor; read-out: Ki) [nM] |
| --- | --- | --- | --- | --- | --- | --- | --- | --- | --- | --- | --- | --- | --- | --- | --- | --- | --- |
| LEAD(IV) ACETATE | Not Active | Not Active | Not Active | Not Active | Not Active | Not Active | Not Active | Not Active | Not Active | Not Active | Not Active | Not Active | Not Active | Not Active | – | – | – |
| O=C(c1ccccc1)c1ccc2n1CCC2C(=O)O (centres undefined) [KETOROLAC] | Not Active | Not Active | Not Active | – | Not Active | – | Not Active | Not Active | Not Active | – | Not Active | – | – | – | 13 | – | – |
| CC[C@H](C)[C@@H](CO[C@@H](Cc1ccccc1)C(=O)N[C@@H](CCS(C)(=O)=O)C(=O)OC(C)C)NC[C@@H](N)CS | Not Active | Not Active | Not Active | – | – | – | Not Active | Not Active | Not Active | – | Not Active | – | Not Active | – | – | 1610 | 536 |
| CN1C(=O)OC(C)(C)C1=O [TRIMETHADIONE] | Not Active | Not Active | Not Active | – | Not Active | – | Not Active | Not Active | Not Active | – | Not Active | – | Not Active | – | – | – | – |
| CCC(C)(C)C(=O)O[C@H]1C[C@@H](C)C=C2C=C[C@H](C)[C@H](CC[C@@H]3C[C@@H](O)CC(=O)O3)[C@H]21 [SIMVASTATIN] | Not Active | Not Active | Not Active | – | Not Active | – | Not Active | Not Active | Not Active | – | Not Active | – | Not Active | – | – | – | – |
| Cc1ccc(S(=O)(=O)NC(=O)NN2CCCCCC2)cc1 [TOLAZAMIDE] | Not Active | Not Active | Not Active | – | Not Active | – | Not Active | Not Active | Not Active | – | Not Active | – | Not Active | – | – | – | – |
| CC(Cl)(Cl)Cl [TRICHLOROETHANE] | Not Active | Not Active | Not Active | – | Not Active | – | Not Active | Not Active | Not Active | – | Not Active | – | Not Active | – | – | – | – |
| CC(C)(C)NC[C@H](O)COc1cccc2c1CCCC2=O [LEVOBUNOLOL] | Not Active | Not Active | Not Active | – | Not Active | – | Not Active | Not Active | Not Active | – | Not Active | – | Not Active | – | – | – | – |
| CCN1CCCC1CNC(=O)c1cc(S(N)(=O)=O)ccc1OC (centres undefined) [SULPIRIDE] | Not Active | Not Active | Not Active | – | Not Active | – | Not Active | Not Active | Not Active | – | Not Active | – | Not Active | – | – | – | – |
| Cc1cccc(C)c1NC(=O)C(C)N (centres undefined) [TOCAINIDE] | Not Active | Not Active | Not Active | – | Not Active | – | Not Active | Not Active | Not Active | – | Not Active | – | Not Active | – | – | – | – |
| CCOC(=O)C1=C(C)NC(C)=C(C(=O)OCC)C1c1ccccc1/C=C/C(=O)OC(C)(C)C [LACIDIPINE] | Not Active | Not Active | Not Active | – | Not Active | – | Not Active | Not Active | Not Active | – | Not Active | – | Not Active | – | – | – | – |
| C=CCc1ccc2c(c1)OCO2 [SAFROLE] | Not Active | Not Active | Not Active | – | Not Active | – | Not Active | Not Active | Not Active | – | Not Active | – | Not Active | – | – | – | – |
